Data: PMC5125710, “Mechanistic Studies and Modeling Reveal the Origin of Differential Inhibition of Gag Polymorphic Viruses by HIV-1 Maturation Inhibitors” (PLoS Pathogens, 2016)
“And” between values parts separate entries of the source, which are not always exact repeats. Identical values can stand only once. Like-named read-outs stand apart in the source and are kept apart here.

Assays:
[1] = system: HIV-1 NLRepRlucP373S V370A/Δ371T; assay: microbe, parasite or virus in culture; format: cell-based; conditions: for EC50: Human immunodeficiency virus 1, MC assay
[2] = system: HIV-1 NLRepRlucP373S ΔV370; assay: microbe, parasite or virus in culture; format: cell-based; conditions: for EC50: Human immunodeficiency virus 1; for log10 reduction in virus, multiple cycle antiviral assay, maximal inhibition: ΔV370, calculated from MC MPI
[3] = system: HIV-1 NLRepRlucP373S V370M; assay: microbe, parasite or virus in culture; format: cell-based; conditions: for EC50: Human immunodeficiency virus 1, MC assay
[4] = system: HIV-1 NLRepRlucP373S T371A; assay: microbe, parasite or virus in culture; format: cell-based; conditions: Human immunodeficiency virus 1, MC assay
WT HIV-1 Gag VLPs = target: T1, WT HIV-1 Gag VLPs (Human immunodeficiency virus type 1 group M subtype B, UniProt P03348); assay: SPA radiolabeled competition binding assay, WT VLPs; parameters: Kd FC vs. WT: unit not given beside the values
T1 construct: constructed to encode full length HIV-1 LAI Gag; made in house; host or cells: 293T cells, transfected with pGagOpt plasmid; VLPs pelleted from supernatant

[5] = system: HIV-1 NLRepRlucP373S ΔT371; assay: microbe, parasite or virus in culture; format: cell-based; conditions: for EC50: Human immunodeficiency virus 1, MC assay
V362I HIV-1 Gag VLPs = target: T2, V362I HIV-1 Gag VLPs (Human immunodeficiency virus type 1 group M subtype B, UniProt P03348, V362I); assay: biochemical; format: binding; parameters: Kd FC vs. WT: unit not given beside the values
T2 construct: constructed to encode full length HIV-1 LAI Gag; made in house; host or cells: 293T cells, transfected with pGagOpt plasmid

[6] = system: HIV-1 NLRepRlucP373S V362I; assay: microbe, parasite or virus in culture; format: cell-based; conditions: for EC50: Human immunodeficiency virus 1, V362I virus; for log10 reduction in virus, multiple cycle antiviral assay, maximal inhibition: V362I, calculated from MC MPI
V370A HIV-1 Gag VLPs = target: T3, V370A HIV-1 Gag VLPs (Human immunodeficiency virus type 1 group M subtype B, UniProt P03348, V370A); assay: biochemical; format: binding; parameters: Kd FC vs. WT: unit not given beside the values
T3 construct: constructed to encode full length HIV-1 LAI Gag; made in house; host or cells: 293T cells, transfected with pGagOpt plasmid

[7] = system: LAI pseudotyped NLRepRlucP373 Δenv; format: cell-based; conditions: for Inhibition of luciferase production: compound added only at the infection stage (second step); for Inhibition of luciferase activity in the infection stage: compound added at the transfection step (first step)
[8] = system: HIV-1 NLRepRlucP373S (WT); format: cell-based; conditions: for SC Assay MPI (%): WT virus; for log10 reduction in virus, single cycle antiviral assay, maximal inhibition: WT, calculated from SC MPI
[9] = target: T4, CA/SP1 cleavage of WT Gag VLPs by HIV-1 protease (Human immunodeficiency virus type 1 group M subtype B, UniProt P03348); format: biochemical; conditions: 3 μM MI
T4 construct: constructed to encode full length HIV-1 LAI Gag; made in house; host or cells: Gag VLPs from transfected 293T cells

ΔV370 HIV-1 Gag VLPs = ΔV370 HIV-1 Gag VLPs (Human immunodeficiency virus type 1 group M subtype B, UniProt P03348, DEL370-370); assay: SPA radiolabeled competition binding assay, ΔV370 VLPs; parameters: Kd FC vs. WT: unit not given beside the values; conditions: for Kd FC vs. WT: ΔV370 VLP
[10] = system: HIV-1 NLRepRlucP373S (WT); assay: microbe, parasite or virus in culture; format: cell-based; conditions: for MC Assay MPI (%): maximal percent inhibition at two highest drug concentrations
[11] = target: CA/SP1 cleavage of ΔV370 Gag VLPs by HIV-1 protease (Human immunodeficiency virus type 1 group M subtype B, UniProt P03348, DEL370-370); assay: HIV-1 VLP protease cleavage assay (LC/MS), ΔV370 VLPs; format: biochemical; conditions: 3 μM MI
[12] = system: HIV-1 NLRepRlucP373S V370A; assay: microbe, parasite or virus in culture; format: cell-based; conditions: for EC50: Human immunodeficiency virus 1, V370A virus; for log10 reduction in virus, multiple cycle antiviral assay, maximal inhibition: V370A, calculated from MC MPI
HIV-1 = conditions: cited from earlier work
[13] = system: HIV-1 NLRepRlucP373S ΔV370; format: cell-based; conditions: for log10 reduction in virus, single cycle antiviral assay, maximal inhibition: ΔV370, calculated from SC MPI; for SC Assay MPI (%): ΔV370 virus
[14] = from mean C24 and free fraction of 0.14
[15] = system: HIV-1 NLRepRlucP373S V370A; format: cell-based; conditions: for SC Assay MPI (%): V370A virus; for log10 reduction in virus, single cycle antiviral assay, maximal inhibition: V370A, calculated from SC MPI
[16] = system: HIV-1 NLRepRlucP373S Q369H; assay: microbe, parasite or virus in culture; format: cell-based; conditions: Human immunodeficiency virus 1, MC assay

Row | Structure (SMILES) | EC50 [1] [nM] | EC50 ([2]; ΔV370 virus, MC assay) [nM] | MC Assay MPI (%) ([2]; ΔV370 virus) | EC50 [3] [nM] | EC50 [4] [nM] | Kd FC vs. WT (WT HIV-1 Gag VLPs; WT VLP) | EC50 [5] [nM] | Kd FC vs. WT (V362I HIV-1 Gag VLPs; V362I VLP) | EC50 ([6]; MC assay) [nM] | MC Assay MPI (%) ([6]; V362I virus) | Kd FC vs. WT (V370A HIV-1 Gag VLPs; V370A VLP) | Inhibition of luciferase production [7] | SC Assay MPI (%) [8] | log10 reduction in virus, single cycle antiviral assay, maximal inhibition [8] [log10] | Inhibition of CA/SP1 cleavage ([9]; 4 hours) | Kd FC vs. WT (ΔV370 HIV-1 Gag VLPs) | log10 reduction in virus, multiple cycle antiviral assay, maximal inhibition [2] [log10] | Inhibition of luciferase activity in the infection stage [7] | MC Assay MPI (%) ([12]; V370A virus) | SC Assay MPI (%) [15] | further results
1 | C=C(C)[C@@H]1CC[C@]2(C(=O)O)CC[C@]3(C)[C@H](CC[C@@H]4[C@@]5(C)CC=C(c6ccc(C(=O)O)cc6)C(C)(C)[C@@H]5CC[C@]43C)[C@@H]12 [BMS-1] | > 10000 | > 6000 | 3.7 +/- 2.9% and 3.7% | > 4000 | 28 | 1.0 | 292 | 1.9 | 213 | 71.4 +/- 5.4% and 71.4% | 7.0 |  |  |  |  |  |  |  |  |  | Kd (WT HIV-1 Gag VLPs; WT VLP, competition displacement of [3H]-BMS-977660, read-out: Kd): 25.4 nM; Kd (V362I HIV-1 Gag VLPs; V362I VLP, competition displacement of [3H]-BMS-977660, read-out: Kd): 49 nM; Kd (V370A HIV-1 Gag VLPs; V370A VLP, competition displacement of [3H]-BMS-977660, read-out: Kd): 177 nM
2 | COc1ccnc2[nH]cc(C(=O)C(=O)N3CCN(C(=O)c4ccccc4)C[C@H]3C)c12 [BMS-378806, 4-benzoyl-1-[(4-methoxy-1H-pyrrolo[2,3-b]pyridin-3-yl)oxoacetyl]-2-(R)-methylpiperazine] |  |  |  |  |  |  |  |  |  |  |  | fully active |  |  |  |  |  |  |  |  | 
3 | C=C(C)[C@@H]1CC[C@]2(NCCN3CCS(=O)(=O)CC3)CC[C@]3(C)[C@H](CC[C@@H]4[C@@]5(C)CC=C(c6ccc(C(=O)O)cc6)C(C)(C)[C@@H]5CC[C@]43C)[C@@H]12 [BMS-955176] | 6.6 | 13 | 91.9 +/- 4.4% and 92% and 91.9% | 2.8 | 2 | 1.0 | 7.3 | 1.3 | 4.5 | 93.8 +/- 1.8% and 93.8% | 2 |  | 93.0 +/- 2.5% and 93% | -1.15 | sustained inhibition | 10 | -1.09 | inhibiting luciferase production only when added in the first step | 98.2 +/- 1.3% and 98.2% | 76.5 +/- 3.0% and 76.5% | Kd (ΔV370 HIV-1 Gag VLPs): 33.6 nM; MC Assay MPI (%) ([10]; WT virus): 100 +/- 0.4% and 100%; log10 reduction in virus, multiple cycle antiviral assay, maximal inhibition ([10]; WT, calculated from MC MPI): < -2.00 log10; Inhibition of CA/SP1 cleavage ([11]; 4 hour time point): 13%; EC50 ([12]; MC assay): 2.7 nM; log10 reduction in virus, multiple cycle antiviral assay, maximal inhibition [12]: -1.73 log10; Kd (WT HIV-1 Gag VLPs): 3.2 nM; Clinical VLR, maximal median HIV-1 log10 RNA reduction (HIV-1; subtype B Gag polymorphs (compared to V370A, V362I), 40 mg): -1.71 log10; Clinical VLR, maximal median HIV-1 log10 RNA reduction (HIV-1; subtype B WT genotype, 40 mg QD, 10 day monotherapy): -1.75 log10; Clinical VLR, maximal median HIV-1 log10 RNA reduction (HIV-1; subtype C viruses (compared to ΔV370), 40 mg): -1.35 log10; log10 reduction in virus, single cycle antiviral assay, maximal inhibition [13]: -0.27 log10; SC Assay MPI (%) [13]: 45.9%; Kd (V362I HIV-1 Gag VLPs): 4.3 nM; Mean free concentration [14]: 213 nM; log10 reduction in virus, multiple cycle antiviral assay, maximal inhibition [6]: -1.20 log10; Kd (V370A HIV-1 Gag VLPs): 6.5 nM; log10 reduction in virus, single cycle antiviral assay, maximal inhibition [15]: -0.64 log10
4 | C=C(C)[C@@H]1CC[C@]2(C(=O)O)CC[C@]3(C)[C@H](CC[C@@H]4[C@@]5(C)CC[C@H](OC(=O)CC(C)(C)C(=O)O)C(C)(C)[C@@H]5CC[C@]43C)[C@@H]12 [BVM, bevirimat, reference compound] |  | > 10000 | 9.2+/- 6.3% and 9% and 9.2% |  | 40 | 1.0 |  | 2.9 |  | 81.3 +/- 2.0% and 81.3% | 9.1 |  | 82.3 +/- 2.7% and 82% and 82.3% | -0.71 | 1% | 48 | -0.04 | inhibiting luciferase production only when added in the first step | 65.4 +/- 3.8% and 65.4% | 19% and 19.0 +/- 3.5% | Inhibition of CA/SP1 cleavage ([9]; 2 hours): 39%; Inhibition of CA/SP1 cleavage ([11]; whole time course): not inhibitory at any time point; log10 reduction in virus, multiple cycle antiviral assay, maximal inhibition [12]: -0.46 log10; EC50 [16]: 7 nM; log10 reduction in virus, single cycle antiviral assay, maximal inhibition [13]: 0.06 log10; SC Assay MPI (%) [13]: -26% and -25.6%; log10 reduction in virus, multiple cycle antiviral assay, maximal inhibition [6]: -0.73 log10; log10 reduction in virus, single cycle antiviral assay, maximal inhibition [15]: -0.08 log10
5 | Cc1c(O)cccc1C(=O)N[C@@H](CSc1ccccc1)[C@H](O)CN1C[C@H]2CCCC[C@H]2C[C@H]1C(=O)NC(C)(C)C [NFV, nelfinavir, reference compound] | 5.7 | 5.2 |  | 4.5 |  |  | 2 |  | 4.3 | 100% |  | luciferase production is not inhibited | 99.3% |  |  |  |  | luciferase activity is inhibited | 99.9% | 99.0% | FC = EC50 (SDM)/EC50 (WT) ([1]; MC assay): 1.3; FC = EC50 (SDM)/EC50 (WT) ([2]; ΔV370 virus, MC assay): 1.2; FC = EC50 (SDM)/EC50 (WT) ([3]; V370M virus, MC assay): 1.0; EC50 ([10]; Human immunodeficiency virus 1, WT virus, MC assay): 4.3 nM; FC = EC50 (SDM)/EC50 (WT) ([10]; WT virus, MC assay): 1.0; MC Assay MPI (%) ([10]; WT virus): 100%; EC50 ([12]; MC assay): 4.1 nM; FC = EC50 (SDM)/EC50 (WT) ([12]; V370A virus, MC assay): 1.0; FC = EC50 (SDM)/EC50 (WT) ([5]; ΔT371 virus, MC assay): 0.5; FC = EC50 (SDM)/EC50 (WT) ([6]; V362I virus, MC assay): 1.0
